The subject of the data set is 北京鸭红细胞. The data set can be described thus: Hemolysis of red blood cells. The format is cell-based, Peking duck.

No end group written: not given here.

`COc1ccc2cc3[n+](cc2c1OC)CCc1cc2c(cc1-3)OCO2` [小檗碱] gave a Hemolysis rate (berberine alone, concentration not given) of 1%.

For the molecule “SYPMYARRFLFKWGLLR-NH2 [PCK, Ser Tyr Pro Met Tyr Ala Arg Arg Phe Leu Phe Lys Trp Gly Leu Leu Arg-NH2]”, the “Toxicity to Peking duck red blood cells” value (PCK 0.5-128 μg/mL) is “没有毒性”.

Source of the values: patent CN113698460A, “一种大肠杆菌lipid A结合基元PCK及其制备方法与应用” (priority 2021, dated 2021).
